The source of these data is ChEMBL document CHEMBL3351627, “Design and synthesis of 3-isoxazolidone derivatives as new Chlamydia trachomatis inhibitors” (Bioorg Med Chem Lett, 2014).

Each structure is given as a SMILES string. Active and inactive are the calls of the source. The calls are words filed in the database; no cut-off is given here.

A short description of series [1]: Iron chelating activity of the compound at pH 7.4 by UV-visible spectrophotometric titration. The format is physicochemical.
Series [2] concerns Chlamydia trachomatis. The series is described as follows: Bactericidal activity against Chlamydia trachomatis serovar L2 infected in human HeLa cells assessed as growth inhibition compound treated for 1 hr prior infection measured 24 hrs post infection by microscopy. It counts as functional, organism-based.
A short description of series [3]: Cytotoxicity against mouse fibroblasts at 5 to 200 uM after 24 to 48 hrs by trypan blue exclusion assay. It counts as cell-based. The conditions noted are these: fibroblast.
Another series deals with HeLa. The series is described as follows: Cytotoxicity against human HeLa cells at 5 to 200 uM after 24 to 48 hrs by trypan blue exclusion assay. It counts as cell-based.
Series [4] deals with Chlamydia trachomatis. The experiment in a line: Bactericidal activity against Chlamydia trachomatis serovar L2 infected in human HeLa cells assessed as growth inhibition compound treated at 200 uM for 1 hr prior infection measured 24 hrs post infection by microscopy. It counts as functional, organism-based.
The test system of series [5] is Chlamydia trachomatis. The series is described as follows: Bactericidal activity against Chlamydia trachomatis serovar L2 infected in human HeLa cells assessed as reduction in inclusion forming unit compound treated at 5 to 25 uM for 1 hr prior infection measured 24 hrs post infection by immunofluorescence assay in presence of 200 uM iron citrate. It counts as functional, organism-based.

Series [6] deals with Chlamydia trachomatis. The experiment in a line: Bactericidal activity against Chlamydia trachomatis serovar L2 infected in human HeLa cells assessed as growth inhibition compound treated at 100 to 200 uM for 1 hr prior infection measured 24 hrs post infection by microscopy in presence of 200 uM iron citrate. The format is functional, organism-based.
Series [7] deals with Chlamydia trachomatis. The series is described as follows: Bactericidal activity against Chlamydia trachomatis serovar L2 infected in human HeLa cells assessed as growth inhibition compound treated at 5 to 200 uM for 1 hr prior infection measured 24 hrs post infection by microscopy. It counts as functional, organism-based.
Series [8] deals with Chlamydia trachomatis. The experiment in a line: Bacteriostatic activity against Chlamydia trachomatis serovar L2 infected in human HeLa cells assessed as growth inhibition compound treated at >100 uM for 1 hr prior infection measured 24 hrs post infection by microscopy in presence of 200 uM iron citrate. The format is functional, organism-based.
Series [9] concerns Chlamydia trachomatis. The series is described as follows: Bacteriostatic activity against Chlamydia trachomatis serovar L2 infected in human HeLa cells assessed as growth inhibition compound treated at >100 uM for 1 hr prior infection measured 24 hrs post infection by microscopy. It counts as functional, organism-based.
Series [10] has as its system Chlamydia trachomatis. The experiment in a line: Bactericidal activity against Chlamydia trachomatis serovar L2 infected in human HeLa cells assessed as growth inhibition compound treated at 50 to 200 uM for 1 hr prior infection measured 24 hrs post infection by microscopy. It counts as functional, organism-based.

In the case of `O=C(N[C@@H]1CON(CCOC(=O)c2cccc(O)c2O)C1=O)c1cccc(O)c1O`, the Activity result in series [1] is given as “Active”; in [3], “Non-toxic”; in the series with HeLa, “Non-toxic”. The “growth inhibition (GI)” value with Chlamydia trachomatis [2] is “Dose-dependent effect”. For the same molecule, the “growth inhibition (GI)” value in the series on Chlamydia trachomatis [4] was “Active”.
Regarding `O=C(NCCN1OC[C@@H](NC(=O)c2ccc3cccc(O)c3n2)C1=O)c1ccc2cccc(O)c2n1`, the Activity entry in [1] is on record as “Not Active”; in [3] it was “Non-toxic”; in the series on HeLa, “Non-toxic”. Moreover, the “growth inhibition (GI)” value in the series with Chlamydia trachomatis [2] was “Dose-dependent effect”. Besides, the result in the series on Chlamydia trachomatis [5] was Active. Besides, the “growth inhibition (GI)” value in the series on Chlamydia trachomatis [6] and in the series with Chlamydia trachomatis [7] was “Active” throughout.
On to `O=C(N[C@@H]1CON(CCc2c[nH]cn2)C1=O)c1cccc(O)c1O`, for which, in the series with Chlamydia trachomatis [2], the “growth inhibition (GI)” value was “Dose-dependent effect”. In addition, the Activity result (in series [3]; with HeLa) was “Non-toxic” throughout. Moreover, the “growth inhibition (GI)” value in the series on Chlamydia trachomatis [7] is “Active”.
For the molecule `N[C@@H]1CONC1=O`, in the series with Chlamydia trachomatis [5], the outcome was Active.
Consider `O=C(NCCN1OC[C@@H](NC(=O)c2ccc3ccccc3n2)C1=O)c1ccc2ccccc2n1`, for which the Activity entry in series [1] is given as “Not Active”; in series [3], “Non-toxic”; in the series with HeLa it was “Non-toxic”. Besides, the “growth inhibition (GI)” value in the series on Chlamydia trachomatis [2] was “Dose-dependent effect”. In the series on Chlamydia trachomatis [5], the outcome was Active. For the same molecule, the “growth inhibition (GI)” value with Chlamydia trachomatis [7] was “inactive”.
On to `CC(=O)N(O)CCCCCNC(=O)CCC(=O)N(O)CCCCCNC(=O)CCC(=O)N(O)CCCCCN`, for which the “growth inhibition (GI)” value in the series on Chlamydia trachomatis [8] was “inactive”. Further, the “growth inhibition (GI)” value in the series on Chlamydia trachomatis [9] is “Active”.
Consider `O=C(NCCOC1=NOC[C@H]1NC(=O)c1cccc(O)c1O)c1cccc(O)c1O`, for which the Activity result in series [1] was “Active”; in series [3] it was “Non-toxic”; with HeLa, “Non-toxic”. Besides, the result in the series with Chlamydia trachomatis [5] was Active. Moreover, in the series on Chlamydia trachomatis [4], the “growth inhibition (GI)” value was “Active”.
With `COc1cccc(C(=O)N[C@@H]2CON(CCc3c[nH]cn3)C2=O)c1OC`, the “growth inhibition (GI)” value with Chlamydia trachomatis [2] is “Dose-dependent effect”. Besides, the Activity entry (in series [3]; in the series with HeLa) was “Non-toxic” throughout. In addition, the “growth inhibition (GI)” value in the series on Chlamydia trachomatis [7] was “inactive”.
With `O=C(NCCN1OC[C@@H](NC(=O)c2cccc(O)c2O)C1=O)c1cccc(O)c1O`, the Activity result was “Active” in series [1], “Non-toxic” in series [3] and “Non-toxic” with HeLa. In the series with Chlamydia trachomatis [2], the “growth inhibition (GI)” value was “Dose-dependent effect”. Besides, the result in the series on Chlamydia trachomatis [5] was Active. Also, the “growth inhibition (GI)” value with Chlamydia trachomatis [10] was “Active”.
For the molecule `O=C(N[C@@H]1CON(CCCCOC(=O)c2cccc(O)c2O)C1=O)c1cccc(O)c1O`, the Activity result was “Active” in series [1], “Non-toxic” in [3] and “Non-toxic” with HeLa. Moreover, in the series with Chlamydia trachomatis [2], the “growth inhibition (GI)” value was “Dose-dependent effect”. Moreover, the “growth inhibition (GI)” value in the series with Chlamydia trachomatis [10] is “Active”.
